# Assay results reported in ChEMBL document CHEMBL4138160, “Biphenylthiazole antibiotics with an oxadiazole linker: An approach to improve physicochemical properties and oral bioavailability” (Eur J Med Chem, 2018).
# Calls of active or inactive are those of the source. The rule behind the calls is not given here.
# Tests used:
# [1] = Aqueous solubility in PBS after 2 hrs; format: physicochemical; conditions: buffer
# Staphylococcus aureus [2] = assay: Antibacterial activity against Staphylococcus aureus USA400 NRS123 clinical isolate after 20 hrs by broth microdilution method; format: functional; conditions: USA400 NRS123, 20 h
# [3] = Half life in Sprague-Dawley rat at 25 mg/kg administered via oral gavage measured over 24 hrs by LC-MS/MS analysis; format: ADME, organism-based; conditions: in vivo
# HRT-18 cell line [4] = assay: Cytotoxicity against human HRT18 cells assessed as decrease in cell viability at 512 ug/ml after 2 hrs by MTS assay; format: cell-based; conditions: hrt-18, 2 h
# Klebsiella pneumoniae = assay: Antibacterial activity against Klebsiella pneumoniae BAA-1706 after 20 hrs by broth microdilution method; format: functional; conditions: BAA-1706, 20 h
# Staphylococcus aureus [5] = assay: Bactericidal activity against methicillin-resistant Staphylococcus aureus USA300 at 4 times MIC after 12 hrs by time kill assay; format: functional
# Enterobacter cloacae = assay: Antibacterial activity against Enterobacter cloacae BAA-1154 after 20 hrs by broth microdilution method; format: functional; conditions: BAA-1154, 20 h
# Rattus norvegicus [6] = assay: Cmax in Sprague-Dawley rat at 25 mg/kg administered via oral gavage measured over 24 hrs by LC-MS/MS analysis; format: ADME, organism-based; set-up: dose 25 mg/kg, route oral; conditions: in vivo
# Staphylococcus aureus [7] = assay: Antibacterial activity against Staphylococcus aureus VRS10 clinical isolate after 20 hrs by broth microdilution method; format: functional; conditions: VRS10, 20 h
# Staphylococcus aureus [8] = assay: Antibacterial activity against methicillin-resistant Staphylococcus aureus 2658 RCMB after 20 hrs by broth microdilution method; format: functional
# [9] = Ratio of non cytotoxic concentration against human HRT18 cells to MIC for methicillin-resistant Staphylococcus aureus 2658 RCMB; format: toxicity, cell-based
# Enterococcus faecium = assay: Antibacterial activity against vancomycin-resistant Enterococcus faecium ATCC 700221 after 20 hrs by broth microdilution method; format: functional; conditions: ATCC 700221, 20 h
# [10] = Ratio of Cmax in Sprague-Dawley rat at 25 mg/kg administered via oral gavage to MIC for methicillin-resistant Staphylococcus aureus 2658 RCMB; format: ADME, organism-based; conditions: in vivo
# [11] = AUClast in Sprague-Dawley rat at 25 mg/kg administered via oral gavage measured over 24 hrs by LC-MS/MS analysis; format: ADME, organism-based; set-up: dose 25 mg/kg, route oral, time 0 - last; conditions: in vivo
# Staphylococcus aureus [12] = assay: Potency index, ratio of vancomycin MIC to test compound MIC for Staphylococcus aureus VRS11a clinical isolate; format: functional
# Rattus norvegicus [13] = assay: Tmax in Sprague-Dawley rat at 25 mg/kg administered via oral gavage measured over 24 hrs by LC-MS/MS analysis; format: ADME, organism-based; conditions: in vivo
# Staphylococcus aureus [14] = assay: Antibacterial activity against methicillin-resistant Staphylococcus aureus USA300 NRS384 at sub MIC after 14 passages over 2 weeks by broth microdilution method; format: functional, organism-based
# Rattus norvegicus [15] = assay: Oral bioavailability in Sprague-Dawley rat at 25 mg/kg administered via gavage measured over 24 hrs by LC-MS/MS analysis; format: ADME, organism-based; conditions: in vivo
# Pseudomonas aeruginosa = assay: Antibacterial activity against Pseudomonas aeruginosa ATCC 15442 after 20 hrs by broth microdilution method; format: functional; conditions: ATCC 15442, 20 h
# Staphylococcus aureus [16] = assay: Antibacterial activity against Staphylococcus aureus VRS11a clinical isolate after 20 hrs by broth microdilution method; format: functional
# Acinetobacter baumannii = assay: Antibacterial activity against Acinetobacter baumannii ATCC 19606 after 20 hrs by broth microdilution method; format: functional; conditions: ATCC 19606 = CIP 70.34 = JCM 6841, 20 h
# Enterococcus faecalis = assay: Antibacterial activity against vancomycin-resistant Enterococcus faecalis ATCC 51299 after 20 hrs by broth microdilution method; format: functional; conditions: ATCC 51299, 20 h
# BHK-21 [17] = assay: Cytotoxicity against BHK21 cells assessed as decrease in cell viability after 6 hrs by MTT assay; format: cell-based; conditions: Mesocricetus auratus, BHK-21, 6 h
# Staphylococcus aureus [18] = assay: Antibacterial activity against Staphylococcus aureus RN4220 NRS107 clinical isolate after 20 hrs by broth microdilution method; format: functional; conditions: RN4220 NRS107, 20 h
# Staphylococcus aureus [19] = assay: Potency index, ratio of vancomycin MIC to test compound MIC for Staphylococcus aureus VRS12 clinical isolate; format: functional
# Staphylococcus aureus [20] = assay: Bactericidal activity against methicillin-resistant Staphylococcus aureus USA300 at 4 times MIC after 24 hrs by time kill assay; format: functional, organism-based
# BHK-21 [21] = assay: Cytotoxicity against BHK21 cells assessed as decrease in cell viability after 24 hrs by MTT assay; format: cell-based; conditions: Mesocricetus auratus, BHK-21, 24 h
# Staphylococcus aureus [22] = assay: Antibacterial activity against Staphylococcus aureus VRS12 clinical isolate after 20 hrs by broth microdilution method; format: functional; conditions: VRS12, 20 h
# Staphylococcus aureus [23] = assay: Antibacterial activity against methicillin-resistant Staphylococcus aureus USA300 NRS384 by broth microdilution method
# Staphylococcus aureus [24] = assay: Antibacterial activity against methicillin-resistant Staphylococcus aureus USA300 NRS384 at sub MIC after 4 passages by broth microdilution method
# Staphylococcus aureus [25] = assay: Antibacterial activity against Staphylococcus aureus NRS119 clinical isolate after 18 to 20 hrs by broth microdilution method; format: functional
# Staphylococcus aureus [26] = assay: Antibacterial activity against Staphylococcus aureus NRS119 clinical isolate after 20 hrs by broth microdilution method; format: functional; conditions: NRS119, 20 h
# HRT-18 cell line [27] = assay: Cytotoxicity against human HRT18 cells assessed as decrease in cell viability up to 256 ug/ml after 2 hrs by MTS assay; format: cell-based; conditions: hrt-18, 2 h
# Staphylococcus aureus [28] = assay: Antibacterial activity against Staphylococcus aureus RN4220 NRS107 clinical isolate after 18 to 20 hrs by broth microdilution method; format: functional
smiles,measurement,setting,value
Cc1nc(-c2ccc(-c3ccccc3)cc2)sc1-c1ccnc(NC(=N)N)n1,solubility,[1],2.2 µM
Cc1nc(-c2ccc(-c3ccccc3)cc2)sc1-c1nnc(NC(=N)N2CCN(C)CC2)o1,MIC,Staphylococcus aureus [2],16 µg/mL
same,half-life,[3],2.04 h
same,Activity,HRT-18 cell line [4],Non-Toxic
same,MIC,Klebsiella pneumoniae,> 64 µg/mL
same,Activity,Staphylococcus aureus [5],3 deltalog10CFU/ml
same,MIC,Enterobacter cloacae,> 64 µg/mL
same,Cmax,Rattus norvegicus [6],6222.1 ng/mL
same,MIC,Staphylococcus aureus [7],16 µg/mL
same,solubility,[1],104 µM
same,MIC,Staphylococcus aureus [8],1.17 µg/mL
same,selectivity ratio,[9],> 400
same,MIC,Enterococcus faecium,> 64 µg/mL
same,Ratio,[10],6
same,AUC(0-t) at 24 h,[11],83200 ng·h/mL
same,Ratio,Staphylococcus aureus [12],30
same,Tmax,Rattus norvegicus [13],1.7 h
same,Activity,Staphylococcus aureus [14],Active
same,F,Rattus norvegicus [15],42.5%
same,MIC,Pseudomonas aeruginosa,> 64 µg/mL
same,MIC,Staphylococcus aureus [16],16 µg/mL
same,MIC,Acinetobacter baumannii,> 64 µg/mL
same,MIC,Enterococcus faecalis,> 64 µg/mL
same,IC50,BHK-21 [17],398 µg/mL
same,MIC,Staphylococcus aureus [18],8 µg/mL
same,Ratio,Staphylococcus aureus [19],30
same,Activity,Staphylococcus aureus [20],Active
same,IC50,BHK-21 [21],45.7 µg/mL
same,MIC,Staphylococcus aureus [22],16 µg/mL
CCCCNc1nnc(-c2sc(-c3ccc(-c4ccccc4)cc3)nc2C)o1,MIC,Staphylococcus aureus [8],> 25 µg/mL
Cc1nc(-c2ccc(-c3ccccc3)cc2)sc1-c1nnc(NN)o1,solubility,[1],77 µM
same,MIC,Staphylococcus aureus [8],3.12 µg/mL
CO[C@H]1/C=C/O[C@@]2(C)Oc3c(C)c(O)c4c(O)c(c(/C=N/N5CCN(C)CC5)c(O)c4c3C2=O)NC(=O)/C(C)=C\C=C\[C@H](C)[C@H](O)[C@@H](C)[C@@H](O)[C@@H](C)[C@H](OC(C)=O)[C@@H]1C [RIFAMPIN],MIC,Staphylococcus aureus [23],0.006 µg/mL
same,MIC,Staphylococcus aureus [24],1.6 µg/mL
Cc1nc(-c2ccc(-c3ccccc3)cc2)sc1-c1nnc(NC2CCCCC2)o1,MIC,Staphylococcus aureus [8],> 25 µg/mL
CCNc1nnc(-c2sc(-c3ccc(-c4ccccc4)cc3)nc2C)o1,MIC,Staphylococcus aureus [8],> 25 µg/mL
Cc1nc(-c2ccc(-c3ccccc3)cc2)sc1-c1nnc(N2CCOCC2)o1,MIC,Staphylococcus aureus [8],12.5 µg/mL
Cc1nc(-c2ccc(-c3ccccc3)cc2)sc1-c1nnc(N2CC(O)C2)o1,solubility,[1],150 µM
same,MIC,Staphylococcus aureus [8],3.12 µg/mL
Cc1nc(-c2ccc(-c3ccccc3)cc2)sc1-c1nnc(NC(=N)N)o1,solubility,[1],128 µM
same,MIC,Staphylococcus aureus [8],1.56 µg/mL
same,IC50,BHK-21 [17],> 1000 µg/mL
same,IC50,BHK-21 [21],45 µg/mL
Cc1nc(-c2ccc(-c3ccccc3)cc2)sc1-c1nnc(NC(=N)N2CCCC2)o1,MIC,Staphylococcus aureus [8],12.5 µg/mL
Cc1nc(-c2ccc(-c3ccccc3)cc2)sc1-c1nnc(NC(=N)N2CCCCC2)o1,MIC,Staphylococcus aureus [8],> 25 µg/mL
CC(=O)NC[C@H]1CN(c2ccc(N3CCOCC3)c(F)c2)C(=O)O1 [LINEZOLID],MIC,Klebsiella pneumoniae,> 64 µg/mL
same,MIC,Staphylococcus aureus [25],> 128 µg/mL
same,MIC,Enterobacter cloacae,> 64 µg/mL
same,MIC,Staphylococcus aureus [26],> 128 µg/mL
same,MIC,Enterococcus faecium,1 µg/mL
same,MIC,Pseudomonas aeruginosa,> 64 µg/mL
same,MIC,Acinetobacter baumannii,> 64 µg/mL
Cc1nc(-c2ccc(-c3ccccc3)cc2)sc1-c1nnc(NC(=N)N2CCOCC2)o1,Activity,HRT-18 cell line [27],Non-Toxic
same,MIC,Staphylococcus aureus [8],1.56 µg/mL
same,Activity,Staphylococcus aureus [14],Active
CCN(CC)c1nnc(-c2sc(-c3ccc(-c4ccccc4)cc3)nc2C)o1,MIC,Staphylococcus aureus [8],> 25 µg/mL
CN[C@H](CC(C)C)C(=O)N[C@H]1C(=O)N[C@@H](CC(N)=O)C(=O)N[C@H]2C(=O)N[C@H]3C(=O)N[C@H](C(=O)N[C@H](C(=O)O)c4cc(O)cc(O)c4-c4cc3ccc4O)[C@H](O)c3ccc(c(Cl)c3)Oc3cc2cc(c3O[C@@H]2O[C@H](CO)[C@@H](O)[C@H](O)[C@H]2O[C@H]2C[C@](C)(N)[C@H](O)[C@H](C)O2)Oc2ccc(cc2Cl)[C@H]1O [VANCOMYCIN],MIC,Staphylococcus aureus [8],1.56 µg/mL
same,MIC,Enterococcus faecium,> 64 µg/mL
same,MIC,Staphylococcus aureus [16],> 512 µg/mL
same,MIC,Staphylococcus aureus [22],> 512 µg/mL
Cc1nc(-c2ccc(-c3ccccc3)cc2)sc1-c1nnc(NC(=N)c2cccnc2)o1,MIC,Staphylococcus aureus [8],> 25 µg/mL
Cc1nc(-c2ccc(-c3ccccc3)cc2)sc1-c1nnc(NC(=N)c2ccncc2)o1,MIC,Staphylococcus aureus [8],> 25 µg/mL
CNC(=N)Nc1nnc(-c2sc(-c3ccc(-c4ccccc4)cc3)nc2C)o1,solubility,[1],89 µM
same,MIC,Staphylococcus aureus [8],1.56 µg/mL
CCCCc1ccc(-c2nc(C)c(/C(C)=N/NC(=N)N)s2)cc1,F,Rattus norvegicus [15],0%
Cc1nc(-c2ccc(-c3ccccc3)cc2)sc1-c1nnc(NC(=N)c2ccccn2)o1,MIC,Staphylococcus aureus [8],> 25 µg/mL
CCCNc1nnc(-c2sc(-c3ccc(-c4ccccc4)cc3)nc2C)o1,MIC,Staphylococcus aureus [8],> 25 µg/mL
CNc1nnc(-c2sc(-c3ccc(-c4ccccc4)cc3)nc2C)o1,MIC,Staphylococcus aureus [8],12.5 µg/mL
C/C(=C\C(=O)OCCCCCCCCC(=O)O)C[C@@H]1OC[C@H](C[C@@H]2O[C@H]2[C@@H](C)[C@H](C)O)[C@@H](O)[C@H]1O [MUPIROCIN],MIC,Staphylococcus aureus [28],1020 µg/mL
Cc1nc(-c2ccc(-c3ccccc3)cc2)sc1-c1nnc(NC(C)C)o1,MIC,Staphylococcus aureus [8],> 25 µg/mL
Cc1nc(-c2ccc(-c3ccccc3)cc2)sc1-c1nnc(N(C)C)o1,MIC,Staphylococcus aureus [8],> 25 µg/mL
Cc1nc(-c2ccc(-c3ccccc3)cc2)sc1-c1nnc(N2CCN(C)CC2)o1,solubility,[1],45 µM
same,MIC,Staphylococcus aureus [8],1.56 µg/mL
Cc1nc(-c2ccc(-c3ccccc3)cc2)sc1-c1nnc(N2CCC2)o1,MIC,Staphylococcus aureus [8],> 25 µg/mL
C/C(=N\NC(=N)N)c1sc(-c2ccc(-c3ccccc3)cc2)nc1C,solubility,[1],2.7 µM
same,MIC,Staphylococcus aureus [8],2.75 µg/mL
Cc1nc(-c2ccc(-c3ccccc3)cc2)sc1-c1nnc(NC2CCCC2)o1,MIC,Staphylococcus aureus [8],> 25 µg/mL
Cc1nc(-c2ccc(-c3ccccc3)cc2)sc1-c1nnc(N2CCCC2)o1,MIC,Staphylococcus aureus [8],> 25 µg/mL
